The source of these data is patent US9975918B2 (Van Andel Research Institute, priority 2013, dated 2018).

Data set [1] addresses T1, GR (Homo sapiens, UniProt P04150).
T1 construct: expressed in transfected cells; host or cells: AD293 cells
T1 sequence (P04150 1-777): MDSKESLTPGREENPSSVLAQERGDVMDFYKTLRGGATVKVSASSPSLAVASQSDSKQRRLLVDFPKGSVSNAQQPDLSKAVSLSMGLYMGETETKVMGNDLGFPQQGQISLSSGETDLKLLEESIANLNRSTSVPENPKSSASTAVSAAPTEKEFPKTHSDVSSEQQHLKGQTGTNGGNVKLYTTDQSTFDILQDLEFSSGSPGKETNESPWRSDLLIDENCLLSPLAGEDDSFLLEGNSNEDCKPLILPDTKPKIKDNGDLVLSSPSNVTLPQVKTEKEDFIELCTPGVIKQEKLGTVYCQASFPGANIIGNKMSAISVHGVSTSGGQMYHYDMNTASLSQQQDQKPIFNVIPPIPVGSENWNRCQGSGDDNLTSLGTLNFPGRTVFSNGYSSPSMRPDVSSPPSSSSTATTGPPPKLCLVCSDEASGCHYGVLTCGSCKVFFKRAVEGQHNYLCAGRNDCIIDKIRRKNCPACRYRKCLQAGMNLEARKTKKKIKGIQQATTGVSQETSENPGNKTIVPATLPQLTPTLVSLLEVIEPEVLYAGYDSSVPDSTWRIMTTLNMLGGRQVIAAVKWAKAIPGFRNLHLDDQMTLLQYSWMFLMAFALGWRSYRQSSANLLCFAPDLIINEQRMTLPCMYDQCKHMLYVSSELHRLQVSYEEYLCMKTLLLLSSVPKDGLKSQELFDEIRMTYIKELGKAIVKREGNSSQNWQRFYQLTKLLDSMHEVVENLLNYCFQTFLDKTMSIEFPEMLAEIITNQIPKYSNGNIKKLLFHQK
Kind of data set: MMTV-Luc transactivation (induction) reporter assay in AD293 cells. The class given is cell-based. As to conditions: for potency for GR, in words: compounds without 17α furoate; for effect of the 17α furoate on potency and efficacy, in words: relative to the corresponding compound without 17α furoate; for potency compared with reference glucocorticoids, in words: MMTV-Luc, AD293 cells.

The target of data set [2] is T1, GR. Kind of data set: AP1-Luc transrepression reporter assay in AD293 cells. It is filed as cell-based.
Data set [3] concerns the target T2, GR Q642N (Homo sapiens, UniProt P04150, Q642N).
T2 construct: expressed in transfected cells; host or cells: AD293 cells
T2 sequence (P04150 1-777 Q642N): T1 sequence (P04150 1-777) with Q642N
Kind of data set: MMTV-Luc transactivation assay with Q642N mutant. It is filed as cell-based. The conditions noted are these: compared with wild type; up to saturation concentration. As for the experimental part:
AD293 cells were split at 20,000/well in 24 well plate one day before transfection. For transactivation, 100 ng pHHLuc (MMTV-Luc) plasmid, 0.1 ng pRShGR together with 5 ng phRGtkRenilla were transfected by X-tremeGENE 9 (Roche) into AD293 cells per well. For transreperssion, 10 ng AP1-Luc, 100 ng pRShGR and 5 ng phRGtkRenilla were transfected into AD293 cells per well. One day after transfection, cells were induced by different treatment (steroids or vehicle) 16 hrs overnight.

For data set [4] the following is noted: when used at high concentration; cited from earlier work.
Data set [5] has as its system GR Q642 mutations (Q642A, Q642F, Q642E, Q642K). Kind of data set: MMTV-Luc transactivation assay with the other Q642 mutations. It is filed as cell-based. As to conditions: MF 1 nM, DEX 10 nM.

Changes are numbered by the printed parent chain.

Turning to `CON(C)C(=O)[C@@]1(O)CCC2C3CCC4=Cc5c(cnn5-c5ccccc5)C[C@]4(C)C3[C@@H](O)C[C@@]21C` (some centres unmarked) [VSG24], the “activity in the MMTV reporter assay, in words” value in data set [1] is given as “almost no activity”. For the compound `C[C@]12CCC(=O)C=C1CC[C@@H]1[C@@H]2[C@@H](O)C[C@@]2(C)[C@H]1CC[C@]2(O)C(=O)CO` [cortisol, Cortisol], the “efficacy as % of the efficacy of DEX, transactivation” value in data set [1] (at its saturation concentration (10 μM)) was 80%. In data set [2], the “potency compared with DEX, transrepression, in words” value is listed as “much weaker than DEX”. The “full dose-response curve of Q642N, in words” value in data set [3] is “inactive”. `CCC(=O)O[C@]1(C(=O)NCc2ccccc2)CCC2C3CCC4=Cc5c(cnn5-c5cccc(C(=O)NCc6ccccc6)c5)C[C@]4(C)C3[C@@H](O)C[C@@]21C` (some centres unmarked) [VSG15]: the “potency for GR, in words” value in data set [1] is on record as “relatively low potency”. Take `CCNC(=O)[C@@]1(OC(=O)c2ccco2)CCC2C3CCC4=Cc5c(cnn5-c5cccc(C(=O)NCc6ccccc6)c5)C[C@]4(C)C3[C@@H](O)C[C@@]21C` (some centres unmarked) [VSG10]: in data set [1], the “effect of the 17α furoate on potency and efficacy, in words” value (from here on “effect of the 17α furoate”) is “greatly increased both GR potency and efficacy”.

On to `CON(C)C(=O)[C@@]1(OC(=O)c2ccco2)CCC2C3CCC4=Cc5c(cnn5-c5ccccc5)C[C@]4(C)C3[C@@H](O)C[C@@]21C` (some centres unmarked) [VSG24F], for which the “potency compared with reference glucocorticoids, in words” value in data set [1] was “better than those of DEX and DAC”. As for `CC1=C[C@@H]2[C@H]([C@@H](O)C[C@@]3(C)[C@H]2C[C@@H](C)[C@]3(O)C(=O)CO)[C@@]2(C)Cc3cnn(-c4ccccc4)c3C=C12` [DAC, deacylcortivazol], the “cytotoxicity, in words” value in data set [4] is “strong cytotoxicity”. For `CON(C)C(=O)[C@@]1(OC(=O)c2ccco2)CCC2C3CCC4=Cc5c(cnn5-c5ccccc5)C[C@]4(C)C3[C@@H](O)C[C@@]21C` (some centres unmarked) [VSG22], in data set [1], the “potency compared with reference glucocorticoids, in words” value is “slightly weaker than MF”; the “effect of the 17α furoate” value was “greatly increased both potency and efficacy”. Further, the “EC50 change on replacement of the 17α hydroxyl group by a furoate ester” value in data set [1] (VSG22 vs VSG24) is given as “greater than 1000 fold”. Consider `CCNC(=O)[C@@]1(O)CCC2C3CCC4=Cc5c(cnn5-c5cccc(C(=O)NCc6ccccc6)c5)C[C@]4(C)C3[C@@H](O)C[C@@]21C` (some centres unmarked) [VSG02], for which the “potency for GR, in words” value in data set [1] was “relatively low potency”. In the case of `C[C@]12C=CC(=O)C=C1CC[C@@H]1[C@@H]2[C@@H](O)C[C@@]2(C)[C@H]1CC[C@]2(O)C(=O)CO` [prednisolone, reference compound], in data set [1] (transactivation, relative to cortisol), the “leftward shift of the cortisol dose-response curve” value is on record as “about 5 fold”. As for `C[C@]12Cc3cnn(-c4cccc(C(=O)NCc5ccccc5)c4)c3C=C1CCC1C2[C@@H](O)C[C@@]2(C)C1CC[C@]2(OC(=O)c1ccco1)C(=O)NCc1ccccc1` (some centres unmarked) [VSG14], the “effect of the 17α furoate” value in data set [1] was “greatly increased both GR potency and efficacy”. The same measure, in the same setting: the value for `CCCNC(=O)[C@@]1(OC(=O)c2ccco2)CCC2C3CCC4=Cc5c(cnn5-c5cccc(C(=O)NCc6ccccc6)c5)C[C@]4(C)C3[C@@H](O)C[C@@]21C` (some centres unmarked) [VSG11] was “greatly increased both GR potency and efficacy”.

As for `C[C@@H]1C[C@H]2[C@@H]3CCC4=CC(=O)C=C[C@]4(C)[C@@]3(Cl)[C@@H](O)C[C@]2(C)[C@@]1(OC(=O)c1ccco1)C(=O)CCl` [MF, Mometasone Furoate], in data set [5], the “transactivation activity at sub-saturated concentration, in words” value was “loss of most of the activity”. For `CCCNC(=O)[C@@]1(O)CCC2C3CCC4=Cc5c(cnn5-c5cccc(C(=O)NCc6ccccc6)c5)C[C@]4(C)C3[C@@H](O)C[C@@]21C` (some centres unmarked) [VSG03], in data set [1], the “potency for GR, in words” value is on record as “relatively low potency”.
